How the values were obtained:
ERβ = ERβ (Homo sapiens, UniProt Q92731); assay: Transient transfection transactivation assay, rat oxytocin promoter-luciferase reporter in CHO cells, ERβ
ERα = target: T1, ERα (Homo sapiens, UniProt P03372); assay: Transactivation assay in stably transfected CHO cell line expressing ERα with rat oxytocin-luciferase reporter; assay type: cell-based; details: stably transfected CHO cell lines ERα vs ERβ; agonist curves FIGS. 5A, 5B
T1 construct: expressed in transfected cells
T1 sequence (P03372 whole entry): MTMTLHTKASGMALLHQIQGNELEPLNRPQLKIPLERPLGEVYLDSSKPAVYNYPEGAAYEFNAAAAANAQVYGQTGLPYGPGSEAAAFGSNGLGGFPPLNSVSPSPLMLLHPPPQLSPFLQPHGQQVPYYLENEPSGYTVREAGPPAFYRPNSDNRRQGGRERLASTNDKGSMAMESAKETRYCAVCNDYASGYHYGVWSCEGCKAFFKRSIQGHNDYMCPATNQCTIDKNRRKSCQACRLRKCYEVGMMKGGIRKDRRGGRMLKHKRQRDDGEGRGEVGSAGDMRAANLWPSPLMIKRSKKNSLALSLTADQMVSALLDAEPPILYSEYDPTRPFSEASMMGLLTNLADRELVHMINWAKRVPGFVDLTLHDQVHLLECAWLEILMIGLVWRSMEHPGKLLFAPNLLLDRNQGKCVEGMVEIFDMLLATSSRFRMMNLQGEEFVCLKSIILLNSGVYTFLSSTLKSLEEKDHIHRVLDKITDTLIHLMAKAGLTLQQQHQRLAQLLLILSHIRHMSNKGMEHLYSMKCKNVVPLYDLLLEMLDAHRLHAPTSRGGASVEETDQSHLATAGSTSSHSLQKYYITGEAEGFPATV

ERβ, sequence (Q92731 whole entry): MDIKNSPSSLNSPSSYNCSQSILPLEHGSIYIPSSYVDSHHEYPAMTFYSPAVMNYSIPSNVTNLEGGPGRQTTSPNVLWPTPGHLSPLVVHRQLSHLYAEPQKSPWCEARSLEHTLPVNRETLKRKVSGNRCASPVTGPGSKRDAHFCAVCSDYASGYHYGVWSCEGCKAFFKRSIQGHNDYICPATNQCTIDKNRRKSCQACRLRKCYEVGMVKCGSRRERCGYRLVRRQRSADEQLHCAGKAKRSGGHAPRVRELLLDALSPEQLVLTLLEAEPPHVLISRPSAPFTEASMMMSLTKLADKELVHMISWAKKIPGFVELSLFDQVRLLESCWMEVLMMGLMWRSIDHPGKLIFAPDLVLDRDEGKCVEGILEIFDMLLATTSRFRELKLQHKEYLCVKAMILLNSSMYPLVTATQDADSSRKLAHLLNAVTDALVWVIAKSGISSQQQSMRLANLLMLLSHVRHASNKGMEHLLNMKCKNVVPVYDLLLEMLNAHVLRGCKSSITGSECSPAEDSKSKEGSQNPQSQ

## C[C@]12CC[C@@H]3c4ccc(O)cc4CC[C@H]3[C@@H]1CC[C@@H]2O [17β-estradiol]
ERβ; 10^−9 mol/L 17β-estradiol, transient CHO, normalised for β-galactosidase, FIG. 3
  stimulation of luciferase activity with ERβ: 7 fold
ERβ; CHO cells transiently transfected with ERβ expression vector and reporter, hormones 10^−7 mol/L, FIG. 2
  increase in luciferase activity as compared to untreated cells: 3 to 4 fold

## C#C[C@]1(O)CC[C@H]2[C@@H]3[C@H](C)CC4=C(CC[C@@H](O)C4)[C@H]3CC[C@@]21C [Org4094]
ERα
  concentration for half-maximal transactivation, ERα as compared to ERβ: much more pronounced

— US7060490B1, “DNA encoding novel estrogen receptor” (Akzo Nobel N.V., priority 1996, dated 2006)
